Reference: patent US4816447A, “Anti-viral guanine compounds” (priority 1984, dated 1989)
Converted amounts (≈) assume the structure as drawn. Where two headings read alike, the source gives them in different places.

What was measured:
[1] = Comparative solubilities in pH 7.2 buffer at 25°; type: physicochemical; conditions: for solubility: aqueous buffer, pH 7.2 phosphate buffer, 25°
Method: Comparative Solubilities in pH 7.2 Buffer at 25°
Solubilities were determined by suspending an excess amount of the compound in approximately 0.15 molar phosphate buffer (pH 7.2) and shaking overnight in a water bath at 25° to give a saturated solution. The concentration of the compound in the filtered solution was calculated on the basis of spectrophotometric measurements, i.e. comparison of the ultraviolet absorbance at the λmax for the saturated solution with the absorbance value observed for a known concentration of the compound.

Varicella-Zoster virus = experiment: Varicella-Zoster plaque reduction assay on human MRC-5 monolayers; type: cell-based, Varicella-Zoster (Strain KMcC); human MRC-5 cells; conditions: for minimal effective concentration: Human alphaherpesvirus 3, MRC5, Strain KMcC, plaque reduction, read-out: Minimum Effective Concentration; for comparative activity: compound of formula II vs acycloguanosine
Text: ^b Plaque reduction assay on human MRC5 cell monolayers.

Herpes simplex virus = experiment: Plaque inhibition, Herpes simplex virus on MRC5 cells (Table V); type: cell-based, Herpes simplex virus; MRC5 (human diploid lung) cells
[2] = test system: human cytomegalovirus, strain AD169; experiment: Plaque inhibition, cytomegalovirus on MRC5 cells (Table V); type: cell-based, human cytomegalovirus; MRC5 (human diploid lung) cells
[3] = test system: Varicella-Zoster virus, strain KMcC; experiment: Plaque inhibition, Varicella Zoster virus on MRC5 cells (Table V); type: cell-based, Varicella-Zoster virus; MRC5 (human diploid lung) cells
Vaccinia = experiment: microbe, parasite or virus in culture; type: cell-based, vaccinia; MRC5 (human diploid lung) cells; conditions: for EC50: Orthopoxvirus vaccinia, MRC5, read-out: ED50, concentration required for 50% plaque inhibition
HSV-1 = experiment: Orofacial HSV-1 infection of hairless mice, oral or topical treatment (Table VI); type: in vivo, HSV-1; HRS mice; conditions: for minimal effective dose: Human alphaherpesvirus 1, oral treatment, read-out: Min. Effective Dose; for minimal effective dose / Min. Effective Dose: orofacial infection; for Min. Effective Dose: topical treatment
HSV-2 [4] = experiment: Vaginal HSV-2 infection in mice, oral treatment (Table VI); type: in vivo, HSV-2; ICR/Ha mice; conditions: for minimal effective dose: Human alphaherpesvirus 2, vaginal infection, oral treatment, read-out: Min. Effective Dose
HSV-2 [5] = experiment: Therapeutic efficacy against vaginal HSV-2 infection of mice (Table VII); type: in vivo, HSV-2; mice; conditions: for Survivors/Total: 0.55 μmoles oral gavage twice daily; for therapeutic effectiveness, treatment initiated up to 72 hours after infection: vaginal HSV-2
Method: d. HSV-2 vaginal infection in mice is progressive from local acute infection of the genital area to limb paralysis and eventual death. This is a consistent, reproducible model, but is more virulent and progressive than the human genital disease. Drug efficacy is determined ultimately by extension of animal survival time, and also by the limitation of progression of disease from acute local through paralysis to death. Animals are challenged using in excess of 10 lethal equivalent doses of HSV-2. This model was used to evaluate dosing by oral gavage.

[6] = test system: Herpes simplex virus type 2 (Strain Curtis); experiment: Vaginal Herpes simplex virus type 2 infection in mice, oral treatment (Table XII); type: in vivo, Herpes simplex virus type 2; ICR/Ha female mice; conditions: for Percent Survival: at 19 days; for number of days to infection vs placebo: 50 mg/kg and 12.5 mg/kg
Method: Groups of 10 animals were treated twice daily for ten days by oral gavage using acycloquanosine or the compound of formula II at final daily doses of 50, 12.5, 3.1, 0.8 or 0.2 mg/kg starting immediately following infection. The average number of days to infection and the average days of survival were determined for each group and compared to an infected, placebo-treated group.

HSV-2 TS6 [7] = test system: HSV-2 TS6
[8] = test system: HSV-1 wild type Strain 17; experiment: Drug sensitivity of HSV-1 wild type Strain 17; conditions: for EC50: Human alphaherpesvirus 1, read-out: ED50
Recombinant 6-26 = experiment: Drug sensitivity of HSV-1/HSV-2 intertypic Recombinant 6-26; conditions: for EC50: read-out: ED50
Recombinant 6-30 = experiment: Drug sensitivity of HSV-1/HSV-2 intertypic Recombinant 6-30; conditions: for EC50: read-out: ED50
Recombinant 6-34 = experiment: Drug sensitivity of HSV-1/HSV-2 intertypic Recombinant 6-34; conditions: for EC50: read-out: ED50
Recombinant 6-19 = experiment: Drug sensitivity of HSV-1/HSV-2 intertypic Recombinant 6-19; conditions: for EC50: read-out: ED50
[9] = test system: Herpes simplex virus type 1; experiment: Tube dilution assay, viral cytopathology of HSV-1 in rabbit kidney cell cultures; conditions: Human alphaherpesvirus 1, in Oryctolagus cuniculus
Adeno Type 2 = experiment: Plaque inhibition, Adeno Type 2 on BSC cells (Table V); type: cell-based, Adeno Type 2; BSC (monkey) cells; conditions: for EC50: Primates, read-out: ED50, concentration required for 50% plaque inhibition, Adeno Type 2, BSC
Method: ED50 values developed for the cyclic monophosphate are compared on a weight basis to those established for the compound of Formula II and acyclovir.
Adeno Type 2 was assayed on BSC (monkey) cell cultures.

HSV-1 383R1 = type: cell-based, HSV-1 (383R1); NIH 3T3 mouse cells; conditions: for EC50: Human alphaherpesvirus 1, in Mus musculus
HSV-2 TS6 [10] = experiment: microbe, parasite or virus in culture; conditions: Human alphaherpesvirus 2, read-out: ED50
[11] = MRC5, read-out: ED50, concentration required for 50% plaque inhibition
[12] = Human betaherpesvirus 5, AD169, MRC5, read-out: ED50, concentration required for 50% plaque inhibition
[13] = Human alphaherpesvirus 3, MRC5, read-out: ED50, concentration required for 50% plaque inhibition
[14] = treatment initiated 0 hrs after infection
[15] = treatment initiated 24 hrs after infection
[16] = treatment initiated 48 hrs after infection
[17] = treatment initiated 72 hrs after infection
[18] = read-out: Minimum Effective Concentration, Strain Schooler
[19] = read-out: Antiviral Concentration, 50% plaque reduction, HSV-1 383R1, 3T3 TK^- /TK^+HSV cells
[20] = read-out: Antiviral Concentration, 50% plaque reduction, HSV-1 383R1, 3T3 TK^- cells

## Nc1nc2c(ncn2COCCO)c(=O)[nH]1 [Acycloguanosine, 9-(2-hydroxyethoxymethyl)guanine, reference compound]
[1]
  solubility: 1.3 to 1.5 mg/mL (≈ 5770 to 6660 µM)
Varicella-Zoster virus
  minimal effective concentration: 1 to 2 µg/mL
  comparative activity: equally active
Herpes simplex virus; [11]
  EC50: 0.2 to 0.4 mg/L (≈ 0.888 to 1.78 µM)
[2]; [12]
  EC50: 25 mg/L (≈ 111 µM)
[3]; [13]
  EC50: 3 to 6 mg/L (≈ 13.3 to 26.6 µM)
Vaccinia
  EC50: > 100 mg/L
HSV-1
  minimal effective dose: 12.5 mg/kg/day
  Min. Effective Dose: 0.25-1.0%
HSV-2 [4]
  minimal effective dose: 12.5 to 50 mg/kg/day
HSV-2 [5]; [14]
  Survivors/Total: 1/10
HSV-2 [5]; [15]
  Avg. Survival Days (confidence interval): 12.1 (8.8, 17.3) Days
  Survivors/Total: 3/10
HSV-2 [5]; [16]
  Avg. Survival Days (confidence interval): 12.4 (8.2, 20.7) Days
  Survivors/Total: 5/10
HSV-2 [5]; [17]
  Avg. Survival Days (confidence interval): 9.0 (7.1, 11.3) Days
  Survivors/Total: 1/10
HSV-2 [5]
  therapeutic effectiveness, treatment initiated up to 72 hours after infection: ineffective
[6]; 0.2 mg/kg/day oral
  Avg. Survival Time: 8.8 days
  Percent Survival: 0%
[6]; 0.8 mg/kg/day oral
  Percent Survival: 10%
[6]; 3.1 mg/kg/day oral
  Percent Survival: 20%
[6]; 12.5 mg/kg/day oral
  Avg. Survival Time: 14.1 days
  Percent Survival: 40%
[6]
  number of days to infection vs placebo: statistically significant increases in the number of days to infection
[6]; 50 mg/kg/day oral
  Avg. Survival Time: 17.6 days
  Percent Survival: 60%
[6]; 50 and 12.5 mg/kg
  survival time vs placebo: similarly effective
[6]; only 50 mg/kg
  survival vs placebo: statistically significant enhanced survival
HSV-2 TS6 [7]; HSV-2 TS6
  Sensitivity (S) or Resistance (R): S
HSV-2 TS6 [7]
  sensitivity of HSV-2 Ts6: sensitive
[8]; HSV-1 wild type Strain 17
  Sensitivity (S) or Resistance (R): S
Recombinant 6-26; Recombinant 6-26
  Sensitivity (S) or Resistance (R): S
Recombinant 6-30; Recombinant 6-30
  Sensitivity (S) or Resistance (R): S
Recombinant 6-34; Recombinant 6-34
  Sensitivity (S) or Resistance (R): R
Recombinant 6-19; Recombinant 6-19
  Sensitivity (S) or Resistance (R): R
[9]; [18]
  minimal effective concentration: 1 to 3 µg/mL

## Nc1nc2c(ncn2COC(CO)CO)c(=O)[nH]1 [Compound of Formula II, 9-(1,3-Dihydroxy-2-propoxymethyl)guanine]
[1]
  solubility: 2.8 mg/mL
Varicella-Zoster virus
  minimal effective concentration: 1 to 2 µg/mL
  comparative activity: equally active
Herpes simplex virus; read-out: ED50, concentration required for 50% plaque inhibition, Herpes simplex virus, MRC5
  EC50: 0.2 mg/L
[2]
  more active than acyclovir: approximately 10 fold
[2]; Human betaherpesvirus 5, AD169, read-out: ED50, concentration required for 50% plaque inhibition, Cytomegalovirus, MRC5
  EC50: 0.8 mg/L
[3]; Human alphaherpesvirus 3, read-out: ED50, concentration required for 50% plaque inhibition, Varicella Zoster virus, MRC5
  EC50: 3 to 6 mg/L
Vaccinia
  EC50: 50 to 100 mg/L
Adeno Type 2
  EC50: 50 mg/L
HSV-1 383R1; [19]
  EC50: 0.06 mg/L
HSV-1 383R1; [20]
  EC50: 5 mg/L
[6]; 0.2 mg/kg/day oral
  Avg. Survival Time: 12.1 days
  Percent Survival: 30%
[6]; 0.8 mg/kg/day oral
  Avg. Survival Time: 15.1 days
  Percent Survival: 40%
[6]; 3.1 mg/kg/day oral
  Avg. Survival Time: 19.1 days
  Percent Survival: 75%
[6]; 12.5 mg/kg/day oral
  Avg. Survival Time: 24.7 days
  Percent Survival: 100%
[6]
  number of days to infection vs placebo: statistically significant increases in the number of days to infection
[6]; 50 mg/kg, duration of the test
  signs of herpetic infection: remained free of signs of herpetic infection
[6]; 50 mg/kg/day oral
  Avg. Survival Time: 24.7 days
  Percent Survival: 100%
[6]; 50, 12.5, 3.1 and 0.8 mg/kg
  survival time vs placebo: statistically significant increase in survival time
[6]; 50, 12.5 and 3.1 mg/kg
  survival rate vs placebo: statistically significantly increased
[6]; statistically significant
  relative potency to acycloguanosine as measured by survival: 28.1
  relative potency to acycloguanosine as measured by time to infection: 4.14
HSV-2 TS6 [7]
  sensitivity of HSV-2 Ts6: resistant
HSV-2 TS6 [10]
  EC50: 15.5 mg/L
[8]
  EC50: 0.34 mg/L
Recombinant 6-26
  EC50: 0.05 mg/L
Recombinant 6-30
  EC50: 0.08 mg/L
Recombinant 6-34
  EC50: 0.07 mg/L
Recombinant 6-19
  EC50: 0.1 mg/L
[9]; read-out: Minimum Effective Concentration, Strain McIntyre
  minimal effective concentration: 3 µg/mL
[9]; read-out: Minimum Effective Concentration, Strain McKrae
  minimal effective concentration: 1 to 3 µg/mL
[9]; read-out: Minimum Effective Concentration, Strain S
  minimal effective concentration: 1 to 3 µg/mL
[9]; [18]
  minimal effective concentration: 1 to 3 µg/mL

## Nc1nc2c(ncn2COC2COP(=O)(O)OC2)c(=O)[nH]1 (centres unmarked) [Cyclic Monophosphate, Potassium 9-(1,3-dihydroxy-2-propoxymethyl)guanine cyclic monophosphate]
[1]; qualitative statement
  solubility compared to compound of Formula II and acyclovir: readily soluble
Herpes simplex virus; [11]
  EC50: 3 to 6 mg/L
[2]
  more active than acyclovir: approximately 10 fold
  potency relative to compound of Formula II: equipotent
[2]; [12]
  EC50: 0.8 mg/L
[3]
  in vitro effectiveness against Varicella Zoster virus relative to acyclovir or compound of Formula II: substantially more effective
  more active than either compound of Formula II or acyclovir: approximately 10 fold
[3]; [13]
  EC50: 0.4 to 0.8 mg/L
Vaccinia
  EC50: 6 to 12 mg/L
Vaccinia; vaccinia
  inhibition of DNA virus: inhibitory
Adeno Type 2
  EC50: 3 mg/L
Adeno Type 2; adenovirus
  inhibition of DNA virus: inhibitory
HSV-1
  minimal effective dose: 3.1 mg/kg/day
  Min. Effective Dose: 0.06%
HSV-1; orofacial
  efficacy relative to acyclovir by minimum effective dose: consistently more efficacious than acyclovir
HSV-2 [4]
  minimal effective dose: 0.8 mg/kg/day
HSV-2 [4]; vaginal
  efficacy relative to acyclovir by minimum effective dose: consistently more efficacious than acyclovir
HSV-2 [5]; [14]
  Survivors/Total: 8/10
HSV-2 [5]; [15]
  Survivors/Total: 3/10
HSV-2 [5]; [16]
  Survivors/Total: 2/10
HSV-2 [5]; [17]
  Survivors/Total: 3/10
HSV-2 [5]
  therapeutic effectiveness, treatment initiated up to 72 hours after infection: therapeutically effective
HSV-1 383R1; HSV-1 (383R1)
  antiviral activity on 3T3 TK^- /TK^+HSV vs 3T3 TK^- cells: equivalent
HSV-1 383R1; [19]
  EC50: 1 mg/L
HSV-1 383R1; [20]
  EC50: 1 mg/L
HSV-2 TS6 [7]
  sensitivity of HSV-2 Ts6: sensitive
HSV-2 TS6 [10]
  EC50: 0.4 mg/L
[8]
  EC50: 0.9 mg/L
Recombinant 6-26
  EC50: 1.1 mg/L
Recombinant 6-30
  EC50: 0.3 mg/L
Recombinant 6-34
  EC50: 6.3 mg/L
Recombinant 6-19
  EC50: 4.7 mg/L
